Columns and labels:
[1] = test system: fibrinolysis in a blood sample with reduced platelet function; experiment: Functional Fibrinogen (FF) TEG assay with and without tranexamic acid (TXA)
[2] = test system: fibrinolysis in citrated whole blood; experiment: Citrated Kaolin (CK) TEG assay, blood spiked with increasing t-PA, LY30; design: species or system human; conditions: 15 healthy donors, eight t-PA concentrations, FIG. 9
Procedure: For the Citrated Kaolin group, citrated blood from each of the donors (e.g., whole blood collected into a tube containing sodium citrate (thereby creating a ratio blood to citrate of approximately 9:1) is collected. For eight different tPA concentrations, 0.5 ml of the blood was gently mixed with Kaolin (a coagulation activator) and increasing concentrations of t-PA to induce fibrinolysis. Aliquots were transferred to 37° C. TEG cups, and the samples were analyzed using the TEG 5000 device, and the LY30 calculated for each of the 15 donors at each of the tPA concentrations. The results plotting the LY30 against the t-PA concentration are shown in FIG. 9.

[3] = test system: fibrinolysis in citrated blood with FF reagent (GPIIb/IIIa receptor antagonist); experiment: Functional Fibrinogen TEG assay with/without TXA, blood spiked with increasing t-PA, ΔLY30; design: species or system human; conditions: 15 healthy donors, eight t-PA concentrations, FIG. 10
Procedure: The two TEG cups for each of the fifteen donors at the eight different t-PA concentrations were analyzed on a TEG 5000 device.

| Compound | LY30 ([1]; TXA-treated sample of FIG. 6, amplitude at 74 minutes, the sample not treated with TXA had LY30 approximately 50%) | TEG tracing of the TXA-treated portion compared with the portion not treated with TXA ([1]; blood from a patient with fibrinolysis or hyperfibrinolysis, FIGS. 5 and 6, divergence from about 2 minutes) | Detection threshold [tPA] for CK-LY30 [2] | Detection threshold [tPA] for ΔLY30 [3] |
| --- | --- | --- | --- | --- |
| NC[C@H]1CC[C@H](C(=O)O)CC1 [TXA, tranexamic acid] | approximately 0.1% | higher amplitude, faster growing TEG tracing |  |  |
| tPA: tissue plasminogen activator, converts inactive plasminogen to active plasmin; spiked into blood to induce fibrinolysis |  |  | 75 to 100 ng/mL | 25 to 50 ng/mL |
